Measured values reported in patent US11375718B2, “Use of prodigiosin in resisting potyvirus” (priority 2020, dated 2022).
Residues, ends and D or L forms follow the SMILES beside them. *: point of attachment. Cbz = O=C(OCc1ccccc1)*

Experiments:
[1] = tested on: Hsp70 protein; assay: Western blot of Hsp70 protein in MG-132-treated plants induced by prodigiosin S3; format: in vivo, Nicotiana benthamiana
Description: In order to further analyze the role of ubiquitination modification in the antiviral mechanism of prodigiosin S3, we used MG-132 to treat Nicotiana benthamiana in advance. After 2 h, 0.05 μg/L prodigiosin was applied on the tobacco leaf surface uniformly according to 15 L/mu. After 30 minutes, TMV and PVY viruses were inoculated. The samples of 1 d, 2 d and 3 d after virus inoculation were collected for Western Blot analysis.

[2] = tested on: 26S proteasome complex; conditions: read-out: IC50 (proteasome inhibitor); cited from earlier work
[3] = tested on: TMV; assay: Induced resistance of tobacco to TMV after leaf application of prodigiosin; format: in vivo, Nicotiana tabacum cv. NC89; conditions: infiltration treatment
Description: (§1) The plant material used in this experiment was Nicotiana tabacum cv. NC89, reproduced by our laboratory and cultivated in a greenhouse. Experimental plant culture conditions included: illumination 16 h, temperature 25±1° C., illumination intensity 2000 lux and relative humidity 60%; and dark duration 8 h, temperature 25±1° C. and relative humidity 60%. The nutrient substrate was produced by the Wode nutrient soil processing plant in Shouguang City, Shandong Province, and no additional fertilization was needed during plant growth. The sources of TMV and PVY were preserved by the Plant Protection Research Center of the Institute of Tobacco Research of CAAC (Chinese Academy of Agricultural Sciences), and were propagated and preserved on Nicotiana tabacum cv. NC89 grown in the greenhouse. The prodigiosin S3 was isolated and purified from Serratia marcescens fermentation broth by Plant Protection Research Center of the Institute of Tobacco Research of CAAC.

[4] = Quantitative proteomics and ubiquitination omics of prodigiosin-treated tobacco leaves; format: in vivo, Nicotiana benthamiana; conditions: treatment group vs control group, p<0.05
Source text: In order to further understand the mechanism of systemic resistance of a plant induced by prodigiosin, the prodigiosin treated Nicotiana benthamiana was used as a target material, the optimal reaction time point of prodigiosin against PVY was selected, and the quantitative proteomics and ubiquitinated nonstandard quantitative proteomics in tobacco leaves were studied by organically combining a series of advanced technologies such as non-standard quantitative technology, high performance liquid chromatography (HPLC) fractionation technology, ubiquitinated peptide enrichment technology and quantitative proteomics technology based on mass spectrometry.
Extraction of protein. The leaf sample was taken from −80° C., put in a mortar precooled with liquid nitrogen, fed with liquid nitrogen, and fully ground to powder; 4 times the volume of powdered lysis buffer (8 M urea, 1% TritonX-100, 10 mM DTT, 1% protease inhibitor and 50 μM PR-619) was added for ultrasonic lysis; followed by 10 min of centrifugation (4° C., 20000 g), the supernatant was carefully aspirated off, and trichloroacetic acid was added to a final concentration of 20%; the mixture was left at 4° C. for 2 h; and centrifuged (4° C., 20000 g) for 3 min. The supernatant was discharged, and the precipitate was washed with precooled acetone for three times; the precipitate was re-dissolved (8 M urea) and the protein concentration was determined.
Proteolysis. DTT was added to the protein solution to a final concentration of 5 mM and was reduced at 56° C. for 30 min. Iodoacetamide was then added and incubated for 15 min at room temperature away from light. Pancreatin was added based on a mass ratio of pancreatin:protein=1:50 and enzymolysis was performed at 37° C. overnight. Pancreatin was added again based on a mass ratio of pancreatin:protein=1:100 and enzymolysis was continued for 4 h.
HPLC Fractionation. The enzymatic solution was fractionated by high pH reverse phase HPLC on an Agilent 300 Extend C18 (5 μm particle size, 4.6 mm internal diameter, 250 mm length) column. The operation was as follows: a peptide fragment grading gradient was 8%-32% acetonitrile, the pH was 9; 60 components were separated in 60 min, then the components were combined into 4 components, and the combined components were subjected to lyophilization for subsequent operations.
HPLC-MS Analysis. The lyophilized fractions were analyzed by HPLC-MS: dissolved by a mobile phase A phase (0.1% (v/v) formic acid in water) and separated using EASY-nLC 1000 ultra high performance liquid phase system. […]
Database Search. […] Differential genes and proteins were analyzed by GO enrichment, and KEGG pathway.

[5] = tested on: PVY; assay: Induced resistance of tobacco to PVY after leaf application of prodigiosin; format: in vivo, Nicotiana tabacum cv. NC89; conditions: infiltration treatment
Description: as §1

[6] = 2031 sites on 1110 proteins identified

| SMILES | content of Hsp70 protein ([1]; MG-132-treated samples induced by prodigiosin S3) | accumulation of Hsp70 protein ([1]; MG-132 in advance, after 2 h 0.05 μg/L prodigiosin at 15 L/mu, inoculated after 30 minutes, PVY virus 1 d, vs control group) | IC50 [2] [nM] | induced resistance to TMV [3] [%] | number of ubiquitination sites with down-regulated modification level [4, 6] | number of ubiquitination sites with up-regulated modification level [4, 6] | number of proteins with down-regulated expression ([4]; 6122 proteins identified) | number of proteins with up-regulated expression ([4]; 6122 proteins identified) | induced resistance to PVY [5] [%] |
| --- | --- | --- | --- | --- | --- | --- | --- | --- | --- |
| CC(C)C[C@@H](C=O)NC(=O)[C@H](CC(C)C)NC(=O)[C@H](CC(C)C)NC(=O)OCc1ccccc1 [MG-132] (Cbz-Leu-Leu-Leu-aldehyde) | increases significantly | significantly increased | 100 |  |  |  |  |  |  |
| CCCCCC1=C/C(=C/c2[nH]c(-c3ccc[nH]3)cc2OC)N=C1C [prodigiosin] |  |  |  | 100 | 21 | 33 | 186 | 223 | 100 |
